# Values quoted from earlier work in patent US20010027177A1, “Pharmaceutical composition containing a small or medium size peptide” (priority 2000, published 2001).
# Columns and labels:
# [1] = solutions free from preservative; polystyrene, polypropylene and glass tubes; 24 hours at room temperature
# [2] = tested on: nasal ciliar motility
# [3] = adsorption to glass bottles and plastic tubing used in giving sets
compound,measurement,setting,value
"NC(=O)CC[C@@H]1NC(=O)[C@H](Cc2ccccc2)NC(=O)[C@H](Cc2ccc(O)cc2)NC(=O)CCSSC[C@@H](C(=O)N2CCC[C@H]2C(=O)N[C@H](CCCN=C(N)N)C(=O)NCC(N)=O)NC(=O)[C@H](CC(N)=O)NC1=O [desmopressin, 1-deamino-8-D-arginin-vasopressin]",loss of active principle because of adsorption by the walls,[1],lose about the half of active principle
benzalkonium chloride,effect on nasal ciliar motility,[2],irreversible suppression of the nasal ciliar motility
insulin: peptide drug cited for adsorption to glass bottles and plastic tubing,losses of activity/potency because of adsorption,[3],≤ 78.8%
